Patent publication US6610524B2, “Thermostable phospholipase A1 mutants and a process for preparing the same” (priority 2000, dated 2003)

Assays:
Type in all cases: biochemical
Conditions in all cases: pH 8.0, 37° C., mean value of 2 experiments
[1] = molecular target: Serratia sp. strain MK1 phospholipase A1 (PLA1), wild-type (naturally occurring; gene SEQ ID NO: 1) (Serratia sp. MK1, UniProt Q9X9D8); assay: kinetic parameters of phospholipase A1 (pH-stat titration of fatty acid released from phosphatidylcholine)
Chain of Serratia sp. strain MK1 phospholipase A1 (PLA1), wild-type (naturally occurring; gene SEQ ID NO: 1) (Q9X9D8 entry or part of it): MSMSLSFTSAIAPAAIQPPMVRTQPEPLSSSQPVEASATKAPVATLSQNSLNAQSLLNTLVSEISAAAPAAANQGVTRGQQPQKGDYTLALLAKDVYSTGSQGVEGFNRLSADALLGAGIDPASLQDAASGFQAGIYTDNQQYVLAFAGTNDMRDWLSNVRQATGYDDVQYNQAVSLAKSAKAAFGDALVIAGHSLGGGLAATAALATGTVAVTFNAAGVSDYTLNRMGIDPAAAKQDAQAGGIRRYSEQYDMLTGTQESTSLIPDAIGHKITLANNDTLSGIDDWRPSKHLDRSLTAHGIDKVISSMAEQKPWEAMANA
Method: (§1) Catalytic activity of phospholipase A1 was determined using pH-stat titration method. The amount of released fatty acid from enzyme reaction was measured at 37° C. in a pH-stat (Radiometer Copenhagen, France) equipped with autotiter and autoburette. To a substrate solution containing 3.4 mM phosphatidylcholine, 10 mM CaCl2 and 2.6 mM deoxycholic acid, sonicated for emulsification, was added phospholipase A1 enzyme solution and then the amount of released fatty acid was measured. One unit is defined as the amount of enzyme that releases 1μ mole of free fatty acid per minute from phosphatidylcholine at 37° C. and pH 8.0 in a pH-stat.

[2] = molecular target: Serratia sp. strain MK1 phospholipase A1 mutant TA3 (substitutions at positions 32, 39, 65, 105, 153, 158 and 303 with P, A, L, V, I, I and E); SEQ ID NO: 6; DNA (Serratia sp. MK1, UniProt Q9X9D8, E105V/K303E/M153I/Q32P/S158I/S65L/T39A); assay: kinetic parameters of phospholipase A1 mutant TA3 (pH-stat titration of fatty acid released from phosphatidylcholine)
Chain of Serratia sp. strain MK1 phospholipase A1 mutant TA3 (substitutions at positions 32, 39, 65, 105, 153, 158 and 303 with P, A, L, V, I, I and E); SEQ ID NO: 6; DNA (Q9X9D8 entry or part of it Q32P/T39A/S65L/E105V/M153I/S158I/K303E): as the sequence (Q9X9D8 entry or part of it) above, with Q32P, T39A, S65L, E105V, M153I, S158I, K303E counted along it
From the text: (§2) The amino acid sequence of TA3 was deduced from the nucleotide sequence of TA3 comprising thermostable phospholipase A1 mutant gene and set forth in SEQ ID NO: 6, and the amino acid sequence of TA13 was deduced from the nucleotide sequence of TA13 and set forth in SEQ ID NO: 7. When the amino acid sequences of thermostable phopholipase mutants, TA3 and TA13 were compared with that of naturally occurring phospholipase A1, TA3 and TA13 were identified as novel proteins with 7 and 6 amino acid substitutions, respectively. Phospholipase TA3 has been identified to have amino acid substitutions at positions of 32, 39, 65, 105, 153, 158 and 303 with P, A, L, V, I, I, and E and phospholipase TA13 has been identified to have amino acid substitutions at positions of 36, 102, 154, 158, 281 and 291 with Q, N, K, W, Q and N, respectively.
as §1

[3] = molecular target: Serratia sp. strain MK1 phospholipase A1 mutant TA13 (substitutions at positions 36, 102, 154, 158, 281 and 291 with Q, N, K, W, Q and N); SEQ ID NO: 7; DNA SEQ (Serratia sp. MK1, UniProt Q9X9D8, E35Q/K290N/L157W/L280Q/M153K/S101N); assay: kinetic parameters of phospholipase A1 mutant TA13 (pH-stat titration of fatty acid released from phosphatidylcholine)
Chain of Serratia sp. strain MK1 phospholipase A1 mutant TA13 (substitutions at positions 36, 102, 154, 158, 281 and 291 with Q, N, K, W, Q and N); SEQ ID NO: 7; DNA SEQ (Q9X9D8 entry or part of it E35Q/S101N/M153K/L157W/L280Q/K290N): as the sequence (Q9X9D8 entry or part of it) above, with E35Q, S101N, M153K, L157W, L280Q, K290N counted along it
From the text: as §2, §1

Substance: phosphatidylcholine
- Kcat [1]: 11.23 S^−1
- Kcat/Km [1]: 0.093 S^−1 μM
- Km [1]: 114 µM
- Kcat [2]: 10.92 S^−1
- Kcat/Km [2]: 0.104 S^−1 μM
- Km [2]: 105 µM
- Kcat [3]: 13.67 S^−1
- Kcat/Km [3]: 0.114 S^−1 μM
- Km [3]: 120 µM
